# In ChEMBL document CHEMBL1201862, “PubChem BioAssay data set” (2004):
#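 How tested: cells in 96-well plates exposed to compound for 48 hours at five concentrations. Abbreviation: GI50, concentration required for 50% inhibition of growth.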 Activity calls are given as the source filed them. Cut-off read from the data, not from the text of the source: active = GI50 up to about 1.1 µM and inactive = higher.
# Assays:
# Experiment in all cases: growth of human tumour cells (NCI), 48 h
# SNB-75 = tested on: SNB-75
# SF-295 = tested on: SF-295
# UACC-257 = tested on: UACC-257
# NCI-H23 = tested on: NCI-H23
# NCI/ADR-RES = tested on: NCI/ADR-RES
# UACC-62 = tested on: UACC-62
# MCF7 = tested on: MCF7
# PC-3 = tested on: PC-3
# TK-10 = tested on: TK-10
# ACHN = tested on: ACHN
# A549 = tested on: A549
# MDA-N = tested on: MDA-N
# NCI-H226 = tested on: NCI-H226
# Malme-3M = tested on: Malme-3M
# UO-31 = tested on: UO-31
# KM12 = tested on: KM12
# SW-620 = tested on: SW-620
# OVCAR-8 = tested on: OVCAR-8
# OVCAR-4 = tested on: OVCAR-4
# HCT-15 = tested on: HCT-15
Compound,GI50 (SNB-75),GI50 (SF-295),GI50 (UACC-257),GI50 (NCI-H23),GI50 (NCI/ADR-RES),GI50 (UACC-62),GI50 (MCF7),GI50 (PC-3),GI50 (TK-10),GI50 (ACHN),GI50 (A549),GI50 (MDA-N),GI50 (NCI-H226),GI50 (Malme-3M),GI50 (UO-31),GI50 (KM12),GI50 (SW-620),GI50 (OVCAR-8),GI50 (OVCAR-4),GI50 (HCT-15) [µM]
CN(C)c1ccc(/C=c2\c3cc([N+](=O)[O-])ccc3n3c2cc(-c2ccccc2)[n+]3C)cc1,1.07 µM (active),2.32 µM (inactive),0.918 µM (active),2.75 µM (inactive),39.8 µM (inactive),0.678 µM (active),0.791 µM (active),1.91 µM (inactive),2.64 µM (inactive),5.51 µM (inactive),2.94 µM (inactive),0.437 µM (active),2.75 µM (inactive),0.55 µM (active),7.41 µM (inactive),1.04 µM (active),0.836 µM (active),1.45 µM (inactive),2.17 µM (inactive),15.5
COc1ccc(Cn2c3c(cc(OC(C)=O)c2=O)Cc2ccccc2-3)cc1,11.7 µM (inactive),17 µM (inactive),2.28 µM (inactive),10.5 µM (inactive),1.81 µM (inactive),9.1 µM (inactive),13.7 µM (inactive),8.41 µM (inactive),13.1 µM (inactive),7.91 µM (inactive),13.9 µM (inactive),12.1 µM (inactive),14.3 µM (inactive),10.9 µM (inactive),5.56 µM (inactive),11.4 µM (inactive),6.64 µM (inactive),7.64 µM (inactive),9.95 µM (inactive),2.55
N=C(N)SCCSC(=N)N,> 100 µM (inactive),> 100 µM (inactive),> 100 µM (inactive),> 100 µM (inactive),> 100 µM (inactive),> 100 µM (inactive),> 100 µM (inactive),> 100 µM (inactive),> 100 µM (inactive),> 100 µM (inactive),> 100 µM (inactive),> 100 µM (inactive),> 100 µM (inactive),> 100 µM (inactive),> 100 µM (inactive),> 100 µM (inactive),> 100 µM (inactive),> 100 µM (inactive),> 100 µM (inactive),> 100
CC(=O)Oc1ccc2c3c1[C@H]1O[C@H]1c1cccc(c1-3)[C@@H]1O[C@H]21,4.13 µM (inactive),10 µM (inactive),8.22 µM (inactive),4.92 µM (inactive),10 µM (inactive),8 µM (inactive),18.4 µM (inactive),13.5 µM (inactive),13.9 µM (inactive),18.3 µM (inactive),7.33 µM (inactive),6.87 µM (inactive),21.4 µM (inactive),2.72 µM (inactive),3.74 µM (inactive),12.6 µM (inactive),2.09 µM (inactive),4.22 µM (inactive),7.23 µM (inactive),5
Cc1cc(=O)oc2c(C)c3oc(CBr)cc3cc12,22.6 µM (inactive),17.1 µM (inactive),22.8 µM (inactive),18.3 µM (inactive),19.4 µM (inactive),18.5 µM (inactive),25.2 µM (inactive),16.9 µM (inactive),19.9 µM (inactive),15.8 µM (inactive),17.3 µM (inactive),19.2 µM (inactive),15.5 µM (inactive),19.2 µM (inactive),15.9 µM (inactive),19.1 µM (inactive),13.5 µM (inactive),23.8 µM (inactive),25.8 µM (inactive),18.2
